Results from US10913738B2 (BRISTOL-MYERS SQUIBB COMPANY, priority 2017, dated 2021).
pIC50: −log10 of the molar value. Read-outs that look alike come from different tables or passages of the source.

Tests used:
[1] = test system: MLKL phosphorylation in HT29-L23 human colorectal adenocarcinoma cells; assay: MLKL Phosphorylation High-Content Assay; assay type: cell-based; conditions: Homo sapiens
Outline: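 Cells incubated six hours at 37° C., then phospho-MLKL (S358) immunostained overnight at 4° C. and imaged by high-content microscopy. Phosphorylation quantified as mean circ-ring average intensity ratio; IC50 and Ymax from 4-parameter logistic fits.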

[2] = target: T1, His-GST-TVMV-hRIPK1(1-324) (Homo sapiens, UniProt Q13546); assay: RIPK1 HTRF Binding Assay
T1 construct: The coding region of human RIPK1(1-324) flanked by NdeI site at 5′ end; made in house; host or cells: Spodoptera frugiperda (Sf9) insect cells, baculovirus
T1 sequence (Q13546 1-324): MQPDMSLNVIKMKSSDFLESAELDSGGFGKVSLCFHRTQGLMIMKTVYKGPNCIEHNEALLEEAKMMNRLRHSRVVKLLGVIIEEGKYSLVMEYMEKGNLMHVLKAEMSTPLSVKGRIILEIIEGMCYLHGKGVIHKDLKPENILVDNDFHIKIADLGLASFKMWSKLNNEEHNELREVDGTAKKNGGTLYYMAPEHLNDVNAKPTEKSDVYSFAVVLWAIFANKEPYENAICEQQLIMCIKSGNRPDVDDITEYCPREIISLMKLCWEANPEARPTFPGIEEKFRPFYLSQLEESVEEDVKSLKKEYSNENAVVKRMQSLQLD

[3] = x marks IC50 class 20-200 nM, read-out: pMLKL cell activity 20-200 nM
[4] = x marks IC50 class 20-200 nM, read-out: RIPK1 HTRF binding 20-200 nM
[5] = x marks IC50 class <20 nM, read-out: pMLKL cell activity <20 nM
[6] = x marks IC50 class <20 nM, read-out: RIPK1 HTRF binding <20 nM
[7] = x marks IC50 class >200 nM, read-out: pMLKL cell activity >200 nM

Row | Compound | pIC50 [1, 3] | pIC50 [2, 4] | pIC50 [2, 6] | pIC50 [1, 7] | further results
1 | CC(CCNC(=O)c1cc(-c2ccn3nc(N)nc3c2)nc2ccc(F)cc12)c1ccccc1 (stereo not shown) [Example 67, 2-{2-Amino-[1,2,4]triazolo[1,5-a]pyridin-7-yl}-6-fluoro-N-(3-phenylbutyl)quinoline-4-carboxamide] | 6.70 to 7.70 | 6.70 to 7.70 | – | – | –
2 | Cc1ncc(-c2ccn3nc(N)nc3c2)cc1C(=O)NCc1ncccc1OCC1CC1 [Example 238, 5-{2-amino-[1,2,4]triazolo[1,5-a]pyridin-7-yl}-N-{[3-(cyclopropylmethoxy)pyridin-2-yl]methyl}-2-methylpyridine-3-carboxamide] | 6.70 to 7.70 | 6.70 to 7.70 | – | – | –
3 | CCOc1ncc(-c2ccn3nc(N)nc3c2)cc1C(=O)NC[C@H]1C[C@@H]1COc1ccc(Br)cc1F [Example 273, 5-{2-amino-[1,2,4]triazolo[1,5-a]pyridin-7-yl}-N-{[(1S,2S)-2-[(4-bromo-2-fluorophenoxy)methyl]cyclopropyl]methyl}-2-ethoxypyridine-3-carboxamide] | 6.70 to 7.70 | – | – | – | pIC50 ([2]; x marks IC50 class >200 nM, read-out: RIPK1 HTRF binding >200 nM): < 6.70
4 | CCOc1ncc(-c2ccn3nc(N)nc3c2)cc1C(=O)NCc1cc(F)ccc1OC1CCCC1 [Example 264, 5-{2-amino-[1,2,4]triazolo[1,5-a]pyridin-7-yl}-N-{[2-(cyclopentyloxy)-5-fluorophenyl]methyl}-2-ethoxypyridine-3-carboxamide] | – | – | > 7.70 | – | pIC50 [1, 5]: > 7.70
5 | COc1ncc(-c2ccn3nc(N)nc3c2)cc1C(=O)NCc1ccccc1-c1ccccc1 [Example 106, 5-{2-amino-[1,2,4]triazolo[1,5-a]pyridin-7-yl}-N-({[1,1′-biphenyl]-2-yl}methyl)-2-methoxypyridine-3-carboxamide] | – | – | > 7.70 | – | pIC50 [1, 5]: > 7.70
6 | COc1ncc(-c2ccn3nc(N)nc3c2)cc1C(=O)NCc1cc(F)ccc1C(=O)N1CCC(F)(F)C1 [Example 376, 5-(2-amino-[1,2,4]triazolo[1,5-a]pyridin-7-yl)-N-(2-(3,3-difluoropyrrolidine-1-carbonyl)-5-fluorobenzyl)-2-methoxynicotinamide] | – | – | > 7.70 | – | pIC50 [1, 5]: > 7.70
7 | COc1ncc(-c2ccn3nc(N)nc3c2)cc1C(=O)NCc1c(F)cccc1OCC1CCCC1 [Example 126, 5-{2-amino-[1,2,4]triazolo[1,5-a]pyridin-7-yl}-N-{[2-(cyclopentylmethoxy)-6-fluorophenyl]methyl}-2-methoxypyridine-3-carboxamide] | 6.70 to 7.70 | – | > 7.70 | – | –
8 | COc1ncc(-c2ccn3nc(N)nc3c2)cc1C(=O)NCc1ccccc1OCC1CC1 [Example 81, 5-{2-Amino-[1,2,4]triazolo[1,5-a]pyridin-7-yl}-N-{[2-(cyclopropylmethoxy)phenyl]methyl}-2-methoxypyridine-3-carboxamide] | – | – | > 7.70 | – | pIC50 [1, 5]: > 7.70
9 | COc1ncc(-c2ccn3nc(N)nc3c2)cc1C(=O)N1CCCC(Cc2ccc(Cl)cc2)C1 (stereo not shown) [Example 117, 7-(5-{3-[(4-chlorophenyl)methyl]piperidine-1-carbonyl}-6-methoxypyridin-3-yl)-[1,2,4]triazolo[1,5-a]pyridin-2-amine] | – | 6.70 to 7.70 | – | < 6.70 | –
10 | COc1nc(C)c(-c2ccn3nc(N)nc3c2)cc1C(=O)NCc1ncccc1OCC(F)(F)F [Example 366, 5-(2-amino-[1,2,4]triazolo[1,5-a]pyridin-7-yl)-2-methoxy-6-methyl-N-((3-(2,2,2-trifluoroethoxy)pyridin-2-yl)methyl)nicotinamide] | – | – | > 7.70 | < 6.70 | –
11 | CCOc1ncc(-c2ccn3nc(N)nc3c2)cc1C(=O)NCCC(C)c1ccccc1 (stereo not shown) [Example 280, 5-{2-amino-[1,2,4]triazolo[1,5-a]pyridin-7-yl}-2-ethoxy-N-(3-phenylbutyl)pyridine-3-carboxamide] | 6.70 to 7.70 | – | > 7.70 | – | –
12 | CCCOc1ncc(-c2ccn3nc(N)nc3c2)cc1C(=O)NCCC(C)c1ccccc1 (stereo not shown) [Example 69, 5-{2-Amino-[1,2,4]triazolo[1,5-a]pyridin-7-yl}-N-(3-phenylbutyl)-2-propoxypyridine-3-carboxamide] | – | – | > 7.70 | < 6.70 | –
13 | Cc1nc(C)c(-c2ccn3nc(N)nc3c2)cc1C(=O)NCc1cccnc1OCC1CCC1 [Example 187, 5-{2-amino-[1,2,4]triazolo[1,5-a]pyridin-7-yl}-N-{[2-(cyclobutylmethoxy)pyridin-3-yl]methyl}-2,6-dimethylpyridine-3-carboxamide] | 6.70 to 7.70 | 6.70 to 7.70 | – | – | –
14 | CC(CCNC(=O)c1cncc(-c2ccn3nc(N)nc3c2)c1)c1ccccc1 (stereo not shown) [Example 73, 5-{2-Amino-[1,2,4]triazolo[1,5-a]pyridin-7-yl}-N-(3-phenylbutyl)pyridine-3-carboxamide] | – | – | > 7.70 | < 6.70 | –
15 | COc1ncc(-c2ccn3nc(N)nc3c2)cc1C(=O)NCc1ncccc1OCC1CCC1 [Example 37, 5-{2-Amino-[1,2,4]triazolo[1,5-a]pyridin-7-yl}-N-{[3-(cyclobutylmethoxy)pyridin-2-yl]methyl}-2-methoxypyridine-3-carboxamide] | 6.70 to 7.70 | – | > 7.70 | – | –
16 | COc1ncc(-c2ccn3nc(N)nc3c2)cc1C(=O)NCc1cccc(C(F)(F)F)c1 [Example 119, 5-{2-amino-[1,2,4]triazolo[1,5-a]pyridin-7-yl}-2-methoxy-N-{[3-(trifluoromethyl)phenyl]methyl}pyridine-3-carboxamide] | – | 6.70 to 7.70 | – | < 6.70 | –
17 | COc1ncc(-c2ccn3nc(N)nc3c2)cc1C(=O)NCc1ccccc1OC(C)C1CCCC1 (stereo not shown) [Example 125, 5-{2-amino-[1,2,4]triazolo[1,5-a]pyridin-7-yl}-N-{[2-(1-cyclopentylethoxy)phenyl]methyl}-2-methoxypyridine-3-carboxamide] | 6.70 to 7.70 | – | > 7.70 | – | –
18 | Nc1nc2cc(-c3cc(C(=O)NCc4ccccc4Sc4ccccc4CO)c4cc(F)ccc4n3)ccn2n1 [Example 60, 2-{2-Amino-[1,2,4]triazolo[1,5-a]pyridin-7-yl}-6-fluoro-N-[(2-{[2-(hydroxymethyl)phenyl]sulfanyl}phenyl)methyl]quinoline-4-carboxamide] | – | 6.70 to 7.70 | – | < 6.70 | –
19 | [2H]C([2H])([2H])[C@H](NC(=O)c1cc(-c2ccn3nc(N)nc3c2)cnc1C)c1cccc(OC(F)(F)F)c1 [Example 310, (S)-5-(2-amino-[1,2,4]triazolo[1,5-a]pyridin-7-yl)-2-methyl-N-(1-(3-(trifluoromethoxy)phenyl)ethyl-2,2,2-H3)nicotinamide] | – | 6.70 to 7.70 | – | < 6.70 | –
20 | Cc1ncc(-c2ccn3nc(N)nc3c2)cc1C(=O)NCc1cc(C(F)(F)F)ccc1F [Example 226, 5-{2-amino-[1,2,4]triazolo[1,5-a]pyridin-7-yl}-N-{[2-fluoro-5-(trifluoromethyl)phenyl]methyl}-2-methylpyridine-3-carboxamide] | 6.70 to 7.70 | 6.70 to 7.70 | – | – | –
21 | [2H]C([2H])([2H])Oc1ncc(-c2ccn3nc(N)nc3c2)cc1C(=O)N[C@H](C)c1cc(OC(F)(F)F)ccc1F [Example 285, (R)-5-(2-amino-[1,2,4]triazolo[1,5-a]pyridin-7-yl)-N-(1-(2-fluoro-5-(trifluoromethoxy)phenyl)ethyl)-2-(methoxy-d3)nicotinamide] | 6.70 to 7.70 | 6.70 to 7.70 | – | – | –
22 | [2H]C([2H])([2H])Oc1ncc(-c2ccn3nc(N)nc3c2)cc1C(=O)NC(C)c1ccccc1OC(F)(F)F (single isomer, unassigned) [Example 95-2, 5-{2-amino-[1,2,4]triazolo[1,5-a]pyridin-7-yl}-2-(deutero)methoxy-N-{1-[2-(trifluoromethoxy)phenyl]ethyl}pyridine-3-carboxamide] | – | – | > 7.70 | – | pIC50 [1, 5]: > 7.70
23 | Cc1ncc(-c2ccn3nc(N)nc3c2)cc1C(=O)NC(C)c1cccc(OC(F)(F)F)c1 (stereo not shown) [Example 234, 5-{2-amino-[1,2,4]triazolo[1,5-a]pyridin-7-yl}-2-methyl-N-{1-[3-(trifluoromethoxy)phenyl]ethyl}pyridine-3-carboxamide] | – | 6.70 to 7.70 | – | < 6.70 | –
24 | [2H]C([2H])(NC(=O)c1cc(-c2ccn3nc(N)nc3c2)cnc1C)c1cc(F)cc(F)c1OCC1CC1 [Example 253, 5-{2-amino-[1,2,4]triazolo[1,5-a]pyridin-7-yl}-N-{[2-(cyclopropylmethoxy)-3,5-difluorophenyl](deutero)methyl}-2-methylpyridine-3-carboxamide] | – | – | > 7.70 | – | pIC50 [1, 5]: > 7.70
25 | COc1ccccc1[C@@H](C)NC(=O)c1cc(-c2ccn3nc(N)nc3c2)cnc1OC [Example 156, 5-{2-amino-[1,2,4]triazolo[1,5-a]pyridin-7-yl}-2-methoxy-N-[(1R)-1-(2-methoxyphenyl)ethyl]pyridine-3-carboxamide] | – | 6.70 to 7.70 | – | < 6.70 | –
26 | COc1ncc(-c2ccn3nc(N)nc3c2)cc1C(=O)NCc1ccccc1Oc1ccccc1 [Example 158, 5-{2-amino-[1,2,4]triazolo[1,5-a]pyridin-7-yl}-2-methoxy-N-[(2-phenoxyphenyl)methyl]pyridine-3-carboxamide] | – | – | > 7.70 | – | pIC50 [1, 5]: > 7.70
